In patent publication US12441690B2, “Benzamide derivative compound, method for preparing same, and pharmaceutical composition for treating or preventing inflammatory disease containing same as active ingredient” (SEOUL NATIONAL UNIVERSITY R&DB FOUNDATION, priority 2017, dated 2025):

biological target: PDE4B enzyme (Homo sapiens (Human), UniProt Q07343); test: PDE4B inhibitory activity, LANCE Ultra cAMP assay; format: biochemical; conditions: 50% inhibition from cAMP to 5′AMP
Protocol: In order to evaluate the PDE4B inhibitory activity of the compounds according to the present invention, the following experiment was performed using LANCE Ultra cAMP assay kit (Perkin Elmer, U.S.A).
Particularly, 5 μl of the 3 nM cAMP dissolved reaction buffer was added to each reaction well (LANCE Ultra cAMP assay kit). Then, each example compound dilution solution (2.5 μl) and PDE4B enzyme (0.1 ng/well, BPS Biosciences, San Diego, U.S.A) were added to the well, followed by incubation for 1 hour at 37° C. Next, 5 μl of ULight-anti-cAMP detection reactant supplemented with 5 μl of Eu-cAMP tracer and 1 mM IBMX (LANCE Ultra cAMP assay kit) was added thereto, followed by incubation for 1 hour at 37° C.

Chain of PDE4B enzyme (Q07343 whole entry): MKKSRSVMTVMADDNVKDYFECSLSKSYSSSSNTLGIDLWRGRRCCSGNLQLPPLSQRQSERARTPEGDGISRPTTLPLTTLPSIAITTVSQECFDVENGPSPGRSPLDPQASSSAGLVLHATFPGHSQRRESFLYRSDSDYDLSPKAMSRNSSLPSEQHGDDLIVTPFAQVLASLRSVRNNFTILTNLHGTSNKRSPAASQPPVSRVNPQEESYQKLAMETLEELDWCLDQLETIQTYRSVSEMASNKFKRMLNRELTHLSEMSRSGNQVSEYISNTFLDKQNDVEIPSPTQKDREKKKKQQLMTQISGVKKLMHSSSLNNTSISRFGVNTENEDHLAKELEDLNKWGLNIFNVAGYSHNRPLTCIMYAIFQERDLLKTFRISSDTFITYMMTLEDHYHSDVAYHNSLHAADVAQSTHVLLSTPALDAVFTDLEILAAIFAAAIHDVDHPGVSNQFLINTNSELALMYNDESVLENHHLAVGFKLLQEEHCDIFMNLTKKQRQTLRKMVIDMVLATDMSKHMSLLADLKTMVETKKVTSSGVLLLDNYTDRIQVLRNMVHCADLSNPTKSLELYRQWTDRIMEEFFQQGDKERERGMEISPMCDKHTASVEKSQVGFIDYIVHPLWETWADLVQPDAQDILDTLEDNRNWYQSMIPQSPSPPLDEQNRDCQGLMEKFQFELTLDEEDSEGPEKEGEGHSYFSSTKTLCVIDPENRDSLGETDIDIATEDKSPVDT

| SMILES | IC50 [nM] |
| --- | --- |
| COc1ccc(-c2nc(SC)ncc2C(=O)NC2CCOCC2)cc1OC [Example 5, 4-(3,4-dimethoxyphenyl)-2-(methylthio)-N-(tetrahydro-2H-pyran-4-yl)pyrimidine-5-carboxamide] | 239 |
| COc1ccc(NC(=O)c2cnc(C(F)(F)F)nc2N2CCOCC2)cc1OC [Example 11, N-(3,4-dimethoxyphenyl)-4-morpholino-2-(trifluoromethyl)pyrimidine-5-carboxamide] | 67 |
| COc1ccc(CCNC(=O)c2cnc(SC)nc2N2CCOCC2)cc1OC [Example 7, N-(3,4-dimethoxyphenetyl)-2-(methylthio)-4-morpholinopyrimidine-5-carboxamide] | < 10 |
| CSc1ncc(C(=O)Nc2c(Cl)cncc2Cl)c(N2CCOCC2)n1 [Example 10, N-(3,5-dichloropyridine-4-yl)-2-(methylthio)-4-morpholinopyrimidine-5-carboxamide] | 73 |
| COc1ccc(-c2nc(SC)ncc2C(=O)Nc2cc(C(C)C)c(N)c(C(C)C)c2)cc1OC [Example 20, N-(4-amino-3,5-diisopropylphenyl)-4-(3,4-dimethoxyphenyl)-2-(methylthio)pyrimidine-5-carboxamide] | 745 |
| CSc1ncc(C(=O)Nc2ccc(F)cc2)c(N2CCOCC2)n1 [Example 6, N-(4-fluorophenyl)-2-(methylthio)-4-morpholinopyrimidine-5-carboxamide] | 367 |
| COc1ccc(-c2nc(C(F)(F)F)ncc2C(=O)NCCN2CCOCC2)cc1OC [Example 26, 4-(3,4-dimethoxyphenyl)-N-(2-morpholinoethyl)-2-(trifluoromethyl)pyrimidine-5-carboxamide] | 195 |
| COc1ccc(NC(=O)c2cnc(SC)nc2N2CCN(CCO)CC2)cc1OC [Example 22, N-(3,4-dimethoxyphenyl)-4-(4-(2-hydroxyethyl)piperazine-1-yl)-2-(methylthio)pyrimidine-5-carboxamide] | 881 |
| COc1ccc(-c2nc(C(F)(F)F)ncc2C(=O)NC2CC2)cc1OC [Example 15, N-cyclopropyl-4-(3,4-dimethoxyphenyl)-2-(trifluoromethyl)pyrimidine-5-carboxamide] | 252 |
| COc1ccc(NC(=O)c2cnc(C(F)(F)F)nc2-c2ccc(OC)c(OC)c2)cc1OC [Example 30, N,4-bis(3,4-dimethoxyphenyl)-2-(trifluoromethyl)pyrimidine-5-carboxamide] | 61 |
| O=C(NCCc1c[nH]c2ccccc12)c1cnc(C(F)(F)F)nc1N1CCOCC1 [Example 24, N-(2-(1H-indole-3-yl)ethyl)-4-morpholino-2-(trifluoromethyl)pyrimidine-5-carboxamide] | 469 |
| COc1ccc(-c2nc(C(F)(F)F)ncc2C(=O)NC2CCOCC2)cc1OC [Example 12, 4-(3,4-dimethoxyphenyl)-N-(tetrahydro-2H-pyran-4-yl)-2-(trifluoromethyl)pyrimidine-5-carboxamide] | 266 |
| COc1ccc(-c2nc(C(F)(F)F)ncc2C(=O)Nc2c(Cl)cncc2Cl)cc1OC [Example 16, N-(3,5-dichloropyridine-4-yl)-4-(3,4-dimethoxyphenyl)-2-(trifluoromethyl)pyrimidine-5-carboxamide] | 44 |
| COc1ccc(-c2nc(S(C)(=O)=O)ncc2C(=O)NC2CC2)cc1OC [Example 19, N-cyclopropyl-4-(3,4-dimethoxyphenyl)-2-(methylsulfonyl)pyrimidine-5-carboxamide] | 189 |
| COc1ccc(-c2nc(SC)ncc2C(=O)NC2CC2)cc1OC [Example 18, N-cyclopropyl-4-(3,4-dimethoxyphenyl)-2-(methylthio)pyrimidine-5-carboxamide] | 477 |
| COc1ccc(NC(=O)c2cnc(SC)nc2-c2ccc(OC)c(OC)c2)cc1OC [Example 29, N,4-bis(3,4-dimethoxyphenyl)-2-(methylthio)pyrimidine-5-carboxamide] | 634 |
| COc1ccc(-c2nc(SC)ncc2C(=O)Nc2c(Cl)cncc2Cl)cc1OC [Example 2, N-(3,5-dichloropyridine-4-yl)-4-(3,4-dimethoxyphenyl)-2-(methylthio)pyrimidine-5-carboxamide] | 178 |
| CSc1ncc(C(=O)NCCc2c[nH]c3ccccc23)c(N2CCOCC2)n1 [Example 4, N-(2-(1H-indole-3-yl)ethyl)-2-(methylthio)-4-morpholinopyrimidine-5-carboxamide] | 166 |
| COc1ccc(CNC(=O)c2cnc(SC)nc2N2CCOCC2)c(OC)c1 [Example 9, N-(2,4-dimethoxybenzyl)-2-(methylthio)-4-morpholinopyrimidine-5-carboxamide] | 377 |
| COc1ccc(-c2nc(SC)ncc2C(=O)Nc2ccncc2)cc1OC [Example 3, 4-(3,4-dimethoxyphenyl)-2-(methylthio)-N-(pyridine-4-yl)pyrimidine-5-carboxamide] | 95 |
| COc1ccc(-c2nc(C(F)(F)F)ncc2C(=O)Nc2cc(C(C)C)c(N)c(C(C)C)c2)cc1OC [Example 21, N-(4-amino-3,5-diisopropylphenyl)-4-(3,4-dimethoxyphenyl)-2-(trifluoromethyl)pyrimidine-5-carboxamide] | 222 |
| CCN(CC)C(=O)c1cnc(C(F)(F)F)nc1-c1ccc(OC)c(OC)c1 [Example 13, 4-(3,4-dimethoxyphenyl)-N,N-diethyl-2-(trifluoromethyl)pyrimidine-5-carboxamide] | 833 |
| COc1ccc(CNC(=O)c2cnc(C(F)(F)F)nc2N2CCOCC2)c(OC)c1 [Example 8, N-(2,4-dimethoxybenzyl)-4-morpholino-2-(trifluoromethyl)pyrimidine-5-carboxamide] | 74 |
| COc1ccc(-c2nc(SC)ncc2C(=O)NCCN2CCOCC2)cc1OC [Example 27, 4-(3,4-dimethoxyphenyl)-2-(methylthio)-N-(2-morpholinoethyl)pyrimidine-5-carboxamide] | 860 |
| COc1ccc(-c2nc(S(C)(=O)=O)ncc2C(=O)NC2CCOCC2)cc1OC [Example 14, 4-(3,4-dimethoxyphenyl)-2-(methylsulfonyl)-N-(tetrahydro-2H-pyran-4-yl)pyrimidine-5-carboxamide] | 506 |
